Reference: patent US20130143872A1, “INJECTABLE FORMULATION OF A REVERSE TRANSCRIPTASE INHIBITOR FOR THE TREATMENT CANCER” (priority 2010, published 2013)
Values after ≈ are worked out from the molar mass of the structure shown.

Assays:
[1] = Recrystallisation of nevirapine from water-ethanol co-solvent systems: crystal form and crystal habit; assay type: physicochemical
[2] = cited from earlier work
[3] = EtOH:H2O 90:0 ml, water content 0 % v/v
[4] = EtOH:H2O 90:4.7 ml, water content 5 % v/v
[5] = EtOH:H2O 90:22.5 ml, water content 20 % v/v
[6] = EtOH:H2O 90:38.6 ml, water content 30 % v/v
[7] = EtOH:H2O 90:60 ml, water content 40 % v/v
[8] = EtOH:H2O 90:90 ml, water content 50 % v/v
[9] = EtOH:H2O 90:135 ml, water content 60 % v/v
[10] = EtOH:H2O 90:210 ml, water content 70 % v/v
[11] = EtOH:H2O 90:360 ml, water content 80 % v/v

| Crystal Habit ([1]; EtOH:H2O 90:0 ml (so in the source), water content 10 % v/v) | Crystal Habit [1, 3] | Nevirapine Form Obtained [1, 3] | Crystal Habit [1, 4] | Nevirapine Form Obtained [1, 4] | Crystal Habit [1, 5] | Nevirapine Form Obtained [1, 5] | Crystal Habit [1, 6] | Nevirapine Form Obtained [1, 6] | Crystal Habit [1, 7] | Nevirapine Form Obtained [1, 7] | Crystal Habit [1, 8] | Nevirapine Form Obtained [1, 8] | Crystal Habit [1, 9] | Nevirapine Form Obtained [1, 9] | Crystal Habit [1, 10] | Nevirapine Form Obtained [1, 10] | Crystal Habit [1, 11] | Nevirapine Form Obtained [1, 11] | Structure (SMILES) | solubility in water [2] [mg/mL] |
| --- | --- | --- | --- | --- | --- | --- | --- | --- | --- | --- | --- | --- | --- | --- | --- | --- | --- | --- | --- | --- |
| Very small tabular | Tabular crystals | Hemi-Ethanolate | Smaller tabular | Hemi-Ethanolate | Disorganized | Hemi-Hydrate | Disorganized | Hemi-Hydrate | Columnar clusters | Hemi-Hydrate | Platy clusters | Hemi-Hydrate | Platy crystals | Hemi-Hydrate | Platy crystals | Hemi-Hydrate | Very small bladed | Anhydrous | Cc1ccnc2c1NC(=O)c1cccnc1N2C1CC1 [nevirapine] |  |
|  |  |  |  |  |  |  |  |  |  |  |  |  |  |  |  |  |  |  | Nc1ncnc2c1ncn2CCOCP(=O)(O)O [Adefonir] | 0.4 (≈ 1460 µM) |
